Measured values reported in patent publication EP4667464A1 (Cyrus Therapeutics Inc., priority 2023, dated 2024).
Like-named read-outs stand apart in the source and are kept apart here.

Legend:
[1] = system: lung cancer cell line H358 having the KRAS G12S variant; experiment: SynergyScreen combination efficacy (ATPlite 1Step cell viability); conditions: for Synergy 2: difference between Synergy 1 and cell death rate of Ex. 1-2 alone
Description: In order to measure cell viability, each well was treated with 24 µL of ATPlite 1Step™ (PerkinElmer) solution, then mixed for 2 minutes, and reacted by blocking light for 5 minutes, and then the luminescence signal was measured using an Envision multilabel reader (PerkinElmer).

[2] = system: lung cancer cell line NCI-H358 having the KRAS G12C variant; experiment: Cancer cell growth inhibition, 3D spheroids (CellTiter-Glo 3D); assay type: cell-based; conditions: 3D spheroids, 0.002-10 µM, 5 days, read-out: H358 cell viability
Summary of the method: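 NCI-H358 (KRAS G12C) spheroids lysed with CellTiter-Glo 3D for 30 min with shaking after 10 min at room temperature. Growth in compound-treated wells expressed relative to untreated wells set to 100%.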

KRAS G12C::SOS1 = target: T1, KRAS G12C::SOS1 (Homo sapiens, UniProt Q07889); experiment: KRAS G12C::SOS1 protein-protein interaction (PPI) inhibition assay (HTRF); assay type: binding; conditions: 8 concentrations from 3 µM, three replicates; read-out: KRAS G12C::SOS1 PPI
T1 construct: purchased CISBIO 64KRASG12PEH
T1 sequence (Q07889 1-1333): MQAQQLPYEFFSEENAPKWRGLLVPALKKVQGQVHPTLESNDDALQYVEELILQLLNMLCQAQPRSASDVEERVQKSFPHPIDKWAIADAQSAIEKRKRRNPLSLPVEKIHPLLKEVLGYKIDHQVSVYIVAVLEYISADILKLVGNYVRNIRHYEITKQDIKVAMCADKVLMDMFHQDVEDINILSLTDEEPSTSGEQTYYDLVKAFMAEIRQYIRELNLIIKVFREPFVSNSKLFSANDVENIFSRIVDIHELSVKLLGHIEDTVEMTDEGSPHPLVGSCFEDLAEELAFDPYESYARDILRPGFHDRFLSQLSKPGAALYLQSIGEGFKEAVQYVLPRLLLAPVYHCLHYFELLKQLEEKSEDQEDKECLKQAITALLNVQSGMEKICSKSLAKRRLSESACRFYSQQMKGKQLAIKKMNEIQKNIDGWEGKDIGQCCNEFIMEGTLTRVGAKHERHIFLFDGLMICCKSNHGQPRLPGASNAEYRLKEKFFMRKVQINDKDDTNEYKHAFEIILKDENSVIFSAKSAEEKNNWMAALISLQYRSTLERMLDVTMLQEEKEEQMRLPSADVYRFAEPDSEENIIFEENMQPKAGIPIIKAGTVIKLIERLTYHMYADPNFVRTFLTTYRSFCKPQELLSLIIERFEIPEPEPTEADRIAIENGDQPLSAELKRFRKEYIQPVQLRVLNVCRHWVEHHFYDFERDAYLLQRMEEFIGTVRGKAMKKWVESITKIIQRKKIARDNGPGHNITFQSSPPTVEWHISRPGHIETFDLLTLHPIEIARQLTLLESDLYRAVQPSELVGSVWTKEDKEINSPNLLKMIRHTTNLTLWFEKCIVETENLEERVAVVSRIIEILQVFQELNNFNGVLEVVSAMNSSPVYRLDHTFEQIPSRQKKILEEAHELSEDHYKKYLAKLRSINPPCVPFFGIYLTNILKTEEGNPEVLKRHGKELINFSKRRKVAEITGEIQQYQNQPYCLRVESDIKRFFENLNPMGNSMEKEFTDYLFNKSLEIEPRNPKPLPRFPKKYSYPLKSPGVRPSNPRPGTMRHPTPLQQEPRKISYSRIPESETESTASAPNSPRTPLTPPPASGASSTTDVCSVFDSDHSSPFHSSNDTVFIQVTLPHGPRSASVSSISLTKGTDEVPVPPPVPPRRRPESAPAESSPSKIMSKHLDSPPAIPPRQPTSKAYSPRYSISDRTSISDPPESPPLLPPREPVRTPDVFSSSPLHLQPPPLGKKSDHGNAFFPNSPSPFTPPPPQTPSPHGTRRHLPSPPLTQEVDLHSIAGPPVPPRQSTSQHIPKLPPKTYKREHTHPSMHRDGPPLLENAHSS
Summary of the method: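 Compounds, at eight 3-fold dilutions from 3 µM, were mixed with GTP-loaded Tag1-KRAS G12C, Tag2-SOS1 and a terbium-cryptate donor plus XL665 acceptor antibody pair. After 2 h at room temperature, time-resolved FRET reported the KRAS–SOS1 interaction.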

SOS1 = target: T2, SOS1 (Homo sapiens, UniProt Q07889); experiment: SOS-catalyzed nucleotide exchange assay (HTRF, SOS1-mediated GTP loading of KRAS G12D); assay type: biochemical; conditions: GST-KRAS G12D, HIS-SOS1cat, compound 128 pM to 10 µM; read-out: SOS-catalyzed nucleotide exchange assay
T2 construct: HIS-SOS1cat (160 nM; Cytoskeleton, US); His (N); purchased Cytoskeleton
T2 sequence (Q07889 564-1049 limits assumed): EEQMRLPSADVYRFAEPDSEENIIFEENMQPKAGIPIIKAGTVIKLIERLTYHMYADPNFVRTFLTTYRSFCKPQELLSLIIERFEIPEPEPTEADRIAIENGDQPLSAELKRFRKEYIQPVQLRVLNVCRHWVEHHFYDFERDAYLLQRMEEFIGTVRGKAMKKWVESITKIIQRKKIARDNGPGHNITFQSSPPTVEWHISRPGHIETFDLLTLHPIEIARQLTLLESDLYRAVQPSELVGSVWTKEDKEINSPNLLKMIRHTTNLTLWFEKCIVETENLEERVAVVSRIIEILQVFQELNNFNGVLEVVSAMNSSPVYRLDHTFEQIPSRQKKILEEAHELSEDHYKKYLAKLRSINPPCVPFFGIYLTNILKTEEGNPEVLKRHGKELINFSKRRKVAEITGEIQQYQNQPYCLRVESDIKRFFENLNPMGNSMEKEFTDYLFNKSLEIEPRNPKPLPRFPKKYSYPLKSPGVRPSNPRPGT

Row | IC50 ([2]; Homo sapiens, NCI-H358, 120 h) [nM] | IC50 (KRAS G12C::SOS1) [nM] | IC50 (SOS1) [nM] | Compound | further results
1 | – | – | – | O=c1cc(-c2ccc(O)c(O)c2O)oc2ccccc12 [Example 2-D08, 2-D08] | Synergy 2 ([1]; Ex. 1-2 log M -6.3, culture time 120 h): + (less than 10%)
2 | – | – | – | CNC(=O)c1cc(Oc2ccc(NC(=O)Nc3ccc(Cl)c(C(F)(F)F)c3)cc2)ccn1 [Sorafenib, sorafenib] | Synergy 2 ([1]; Ex. 1-2 log M -5.9, culture time 72 h): + (less than 10%)
3 | – | – | – | C[C@]12C=CC(=O)C=C1CC[C@@H]1[C@@H]2[C@@H](O)C[C@@]2(C)[C@H]1CC[C@]2(O)C(=O)CO [prednisolone] | Concentration (log M) Anticancer agent ([1]; words printed in place of a concentration, culture time 72 h, with Ex. 1-2 log M -5.9): No Concentration -dependent change
4 | < 1000 | < 50 | < 50 | Cc1cc(C(=O)N[C@H](C)c2cc(N)cc(C(F)(F)F)c2F)nn(-c2cncc(-c3cnnn3C)c2)c1=O [Example 2-5, N-[(1R)-1-[5-amino-2-fluoro-3-(trifluoromethyl)phenyl]ethyl]-5-methyl-1-[5-(3-methyltriazol-4-yl)-3-pyridyl]-6-oxo-pyridazine-3-carboxamide] | –
5 | < 1000 | < 50 | 50 to 150 | [2H]C([2H])([2H])c1cc(C(=O)N[C@H](C)c2cccc(C(F)F)c2F)nn(-c2cncc(-c3cnnn3C)c2)c1=O [Example 7-2, N-{(R)-1-[3-(difluoromethyl)-2-fluorophenyl]ethyl}-5-[methyl-trideuterio]-1-[5-(1-methyl-1H-1,2,3-triazol-5-yl)-3-pyridyl]-6-oxo-1,6-dihydropyridazine-3-carboxamide] | –
6 | < 1000 | 50 to 150 | 50 to 150 | C[C@@H](NC(=O)c1ccc(=O)n(-c2cncc(-c3cnnn3C)c2)n1)c1cccc(C(F)(F)F)c1F [Example 1-2, N-[(1R)-1-[2-fluoro-3-(trifluoromethyl)phenyl]ethyl]-1-[5-(3-methyltriazol-4-yl)-3-pyridyl]-6-oxo-pyridazine-3-carboxamide] | EFFECT20 (concentration that induces 20% cell death), applied as final treatment concentration ([1]; culture time 72 h): 1854 nM; EFFECT20 (concentration that induces 20% cell death), applied as final treatment concentration ([1]; culture time 120 h): 652 nM
7 | < 1000 | < 50 | < 50 | C[C@@H](NC(=O)c1cc(C2CC2)c(=O)n(-c2cncc(-c3cnnn3C)c2)c1)c1cccc(C(F)(F)F)c1F [Example 7, (R)-3-cyclopropyl-N-(1-(2-fluoro-3-(trifluoromethyl)phenyl)ethyl)-5'-(1-methyl-1H-1,2,3-triazol-5-yl)-2-oxo-2H-[1,3'-bipyridine]-5-carboxamide] | –
8 | < 1000 | 50 to 150 | < 50 | CCn1nncc1-c1cncc(-n2nc(C(=O)N[C@H](C)c3cccc(C(F)(F)F)c3F)cc(C)c2=O)c1 [Example 1-25, 1-[5-(3-ethyltriazol-4-yl)-3-pyridyl]-N-[(1R)-1-[2-fluoro-3-(trifluoromethyl)phenyl]ethyl]-5-methyl-6-oxo-pyridazine-3-carboxamide] | –
9 | < 1000 | < 50 | < 50 | C[C@@H](NC(=O)c1ccc(=O)n(-c2cncc(-c3cnnn3C)c2)n1)c1cc(N)cc(C(F)(F)F)c1 [Example 1-9, N-[(1R)-1-[3-amino-5-(trifluoromethyl)phenyl]ethyl]-1-[5-(3-methyltriazol-4-yl)-3-pyridyl]-6-oxo-pyridazine-3-carboxamide] | –
10 | < 1000 | < 50 | < 50 | Cc1cc(C(=O)N[C@H](C)c2cccc(C(F)F)c2F)nn(-c2cncc(-c3cnnn3C)c2)c1=O [Example 1-15, N-[(1R)-1-[3-(difluoromethyl)-2-fluoro-phenyl]ethyl]-5-methyl-1-[5-(3-methyltriazol-4-yl)-3-pyridyl]-6-oxo-pyridazine-3-carboxamide] | –

Row | Compound | IC50 ([2]; Homo sapiens, NCI-H358, 120 h) [nM] | IC50 (KRAS G12C::SOS1) [nM] | IC50 (SOS1) [nM] | further results
11 | (R)-3-bromo-N-(1-(2-fluoro-3-(trifluoromethyl)phenyl)ethyl)-5'-(1-methyl-1H-1,2,3-triazol-5-yl)-2-oxo-2H-[1,3'-bipyridine]-5-carboxamide [Example 1-22] | – | 50 to 150 | > 150 | IC50 [2]: < 1000 nM
